These results are taken from patent US7064143B1, “Positive modulators of nicotinic receptor agonists” (AstraZeneca AB, priority 2000, dated 2006).

SMILES strings stand for the structures.

A word on the melting point: it is the temperature, or range, at which the solid turns liquid.

In turn, `Cn1c(C(=O)NC(CF)Cc2ccccc2)cc2c(O)cccc21` (single isomer, unassigned; (+)) [Example 29, (+)-N-(1-Fluoromethyl-2-phenylethyl)4-hydroxy-1-methyl-1H-indole-2-carboxamide] came in with a melting point of 157 to 158 °C.

`Cn1c(C(=O)NC(CF)Cc2ccccc2)cc2c(O)cccc21` (centres unmarked) [Example 23, N-(1-Fluoromethyl-2-phenylethyl) 4-hydroxy-1-methyl-1H-indole-2-carboxamide] registered a melting point of 163.5 to 165.5 °C.
